Results reported in article PMC9546084, “Effects of Unsuppressed Endogenous Insulin on Pharmacokinetics and/or Pharmacodynamics of Study Insulin in the Healthy: A Retrospective Study” (Clinical Pharmacology in Drug Development, 2022).

What was measured:
[1] = PK corrected by C-peptide; cited from earlier work
Description: In studies in which specific assays for the tested insulin are lacking, C‐peptide was always used to correct endogenous insulin.[37], [38] Some researchers[39] still doubted the use of C‐peptide to correct endogenous insulin because some PK parameters were not consistent (eg, a peak of glargine in plasma occurring at 12 hours[40] differs from those observed in subjects with type 1 diabetes where the increase occurs between ≈3 and 6 hours after the first injection[41] and at steady state[42]). Owens[19] reported the exogenous insulin estimated from C‐peptide was nearly the same as what was true ...

[2] = manual euglycemic clamp, glucose infusion rate (PD) after subcutaneous insulin aspart; assay type: in vivo, healthy Chinese male volunteers; settings: for GIRmax (maximum glucose infusion rate): 0.2 IU/kg NovoRapid s.c., 8-hour manual euglycemic clamp; for GIRmax (maximum glucose infusion rate) / tGIRmax (time of GIRmax) / AUCGIR,0-8h: mean ± SD; for GIR AUC from time 0.5 to 2 hours after correction for clamped glucose from 0.5 to 2 hours / AUCGIR,0-8h after correction for the overall clamped glucose / tGIRmax (time of GIRmax) / AUCGIR,0-8h: 0.2 IU/kg s.c.; for AUCGIR,0-8h after correction for the overall clamped glucose: analysis of variance with clamped glucose as covariate; for AUCGIR,0-8h: uncorrected
Description: (§1) From 3 days before the dosing day on, participants were instructed to abstain from drinking alcohol, smoking tobacco, engaging in strenuous exercise, and ingesting caffeine. Participants came to the research center at approximately 6:00 PM the day before drug administration to ensure an overnight fasting condition of 10 to 12 hours the next morning. Throughout the clamp, the subjects remained fasting and in a supine position. A 20‐gauge polyethylene cannula was inserted into an antecubital vein for infusion of 20% dextrose, and a second 18‐gauge catheter was inserted retrogradely into a wrist vein on the dorsum of the hand to draw blood. The hand for blood drawing was maintained continuously in a heated blanket at 55 to 65°C, allowing sampling of arterialized venous blood. After recording the basal blood glucose level (defined as the mean of the glucose measurement at −30, −20, and −10 minutes), the subjects received a 0.2 IU/kg dose of NovoRapid (Novo Nordisk, Bagsværd, Denmark) by subcutaneous injection into a lifted abdominal skin fold. Blood samples were obtained at the bedside for immediate determination of whole blood glucose concentrations every 5 minutes from 0 to 240 minutes and every 10 minutes from 240 to 480 minutes. During the manual euglycemic clamp procedure, the glucose infusion rate (GIR) was adjusted on the basis of the obtained glucose measurements to maintain euglycemia. A 4‐mL blood sample was collected at each of the following points for analysis of C‐peptide, human insulin, and IAsp levels: −30 and 0 minutes (before dosing) and 10, 20, 30, 40, 50, 60, 90, 120, 150, 180, 210, 240, 270, 300, 360, 420, and 480 minutes after dosing. The baselines for each of C‐peptide, human insulin, and IAsp were defined as the mean of the −30 and 0 minute (before dosing) measurements.
(§2) Whole blood glucose concentrations were tested with a glucose analyzer (Biosen C_line GP+, Neckar Healthcare, Co., Ltd., Magdeburg, Germany) using an automated glucose oxidase technique with a measuring range of 9 to 900 mg/dL and a high precision of 1.5%. Human insulin levels were determined using an ultrasensitive enzyme‐linked immunosorbent assay (ELISA) with monoclonal antibodies that have little or no cross‐reactivity to insulin analogs whose ranges of quantification were 0.0065 to 0.87 ng/mL for human insulin.[22] C‐peptide levels were analyzed using a solid‐phase 2‐site ELISA method based on the direct sandwich technique in which 2 monoclonal antibodies are directed against separate antigenic determinants on the C‐peptide molecule with a measuring range of 0.06 to 9 ng/mL, with an intra‐assay coefficient of variation of 2.87% to 4.50%.[23] IAsp concentrations were assessed by means of an ultra‐performance liquid chromatography–tandem mass spectrometry method, [25] at Covance Laboratories in Shanghai that had no detectable cross‐reactivity with human insulin. Solid‐phase extraction was performed. Liquid chromatography separation was achieved using an Acquity UPLC CSH C18+ column (50 × 2.1 × 1.7 μm; Waters Corp., Milford, Massachusetts). A 20‐μL injection with a 0.60 mL/min flow of water with 0.1% of acetic acid (solvent A) and acetonitrile with 0.1% of acetic acid (solvent B) was used. The gradient elution was as follows: the initial 17.5% B was increased to 29.5% over 3.0 minutes, 29.5% to 50.0% over 0.5 minutes, 50% to 98% over 0.5 minutes, remained at 98% for 1.5 minutes, and returned to initial conditions over 0.5 minute. A mass spectrometer used in the positive ionization mode (ESI+) was used for the analysis of the compounds. […] The cone voltage and collision energy were adjusted to maximize the intensity of the protonated ion and to optimize the signal of aspart insulin: m/z 1133.4→971.8 and for the internal standard bovine insulin 1123.5→963.8. The lower limit of quantification was 0.2 ng/mL, the inter‐ and intravariability were 7.0% and 7.9%, respectively. […]

[3] = adverse reactions/events during clamp and follow-up; assay type: in vivo, healthy Chinese male volunteers; settings: 33 healthy men; 0.2 IU/kg s.c.; clamp procedures and follow-up period
Source text: Thirty‐three healthy male volunteers (22 in group A and 11 in group B) undergoing a manual euglycemic clamp study were enrolled in this study.

[4] = pharmacokinetics of insulin aspart during the euglycemic clamp (UPLC-MS/MS); assay type: in vivo, healthy Chinese male volunteers; settings: 0.2 IU/kg s.c., mean ± SD; for CIAsp,max (maximum plasma concentration of IAsp): UPLC-MS/MS
Description: as §1, §2

Row | Substance | time of peak of glargine in plasma [1] | GIRmax (maximum glucose infusion rate) ([2]; group A ((CPpostdosing)max > CPbaseline, n = 22)) | GIR AUC from time 0.5 to 2 hours after correction for clamped glucose from 0.5 to 2 hours ([2]; group A (n = 22)) | AUCGIR,0-8h after correction for the overall clamped glucose ([2]; group A (n = 22)) | tGIRmax (time of GIRmax) ([2]; group A (n = 22)) | AUCGIR,0-8h ([2]; group A (n = 22)) | GIRmax (maximum glucose infusion rate) ([2]; group B ((CPpostdosing)max ≤ CPbaseline, n = 11)) | GIR AUC from time 0.5 to 2 hours after correction for clamped glucose from 0.5 to 2 hours ([2]; group B (n = 11)) | AUCGIR,0-8h after correction for the overall clamped glucose ([2]; group B (n = 11)) | tGIRmax (time of GIRmax) ([2]; group B (n = 11)) | AUCGIR,0-8h ([2]; group B (n = 11)) | adverse reaction after injection [3] | CIAsp,max (maximum plasma concentration of IAsp) ([4]; group A (n = 22)) | AUCIAsp,0-8h ([4]; group A (n = 22)) | time of CIAsp,max ([4]; group A (n = 22)) | CIAsp,max (maximum plasma concentration of IAsp) ([4]; group B (n = 11)) | AUCIAsp,0-8h ([4]; group B (n = 11)) | time of CIAsp,max ([4]; group B (n = 11))
1 | glargine | 12 h | – | – | – | – | – | – | – | – | – | – | – | – | – | – | – | – | –
2 | insulin aspart [IAsp] | – | 8.46 ± 2.43 mg/kg/min | 596 ± 38 mg/kg | 1789 ± 107 mg/kg | 111 ± 40.6 min | 1815 ± 551 mg/kg | 7.90 ± 1.68 mg/kg/min | 520 ± 56 mg/kg | 1380 ± 157 mg/kg | 113 ± 33.9 min | 1327 ± 306 mg/kg | no adverse reaction in any subject | 4.72 ± 1.46 ng/mL | 527 ± 97.1 ng·min/mL | 44.8 ± 11.0 min | 5.53 ± 1.61 ng/mL | 543 ± 97.2 ng·min/mL | 47.3 ± 11.0 min
